This is an account of results in ChEMBL document CHEMBL1135164, “New ketosteroids from the red alga Hypnea musciformis” (Bioorg Med Chem Lett, 2002).

This assay has as its target T1, Chymotrypsin-like elastase family member 2A (Sus scrofa) (UniProt P08419).
T1 sequence (whole entry): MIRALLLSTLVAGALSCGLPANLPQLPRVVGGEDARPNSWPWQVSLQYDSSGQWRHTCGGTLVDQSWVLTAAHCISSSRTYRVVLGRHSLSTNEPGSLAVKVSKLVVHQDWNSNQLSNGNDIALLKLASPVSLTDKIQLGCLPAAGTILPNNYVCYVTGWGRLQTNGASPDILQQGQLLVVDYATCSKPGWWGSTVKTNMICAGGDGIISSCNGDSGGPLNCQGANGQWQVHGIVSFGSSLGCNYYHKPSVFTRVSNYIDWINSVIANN
Description: Effective dose for inhibition of the porcine Pancreatic elastase.

As for `CC(C)C/C=C/[C@](C)(O)[C@H]1CC[C@H]2[C@@H]3CC(=O)[C@H]4CC(=O)CC[C@]4(C)[C@H]3CC[C@@]21C`, the ED50 was 100 µM.
